Experimental data taken from PMC7370100, “In Vitro Assessment of the Genotoxic Hazard of Novel Hydroxamic Acid- and Benzamide-Type Histone Deacetylase Inhibitors (HDACi)” (International Journal of Molecular Sciences, 2020).

Assays:
[1] = tested on: V79 cells; experiment: Micronucleus assay; conditions: V79; for Micronucl. Assay: summary grade
Experimental: We analyzed the frequency of micronuclei in binucleated cells, as described [86]. Briefly, logarithmically growing cells were treated with cytochalasin B (3 µg/m) for 24 h. After fixation with formaldehyde (3.7% in PBS, 20 min, RT) and washing with PBS, cells were permeabilized using precooled methanol (20 min, −20 °C.) After washing with PBS and rinsing the cell layer with PBS containing Triton X100 (PBST; 0.3% Triton X100 in PBS), DNA was stained by DAPI (4´,6-diamino-2-phenylindole) and the number of micronuclei was evaluated by fluorescence microscopy. Data shown are the mean ± SEM of three independent experiments with ≥1000 binucleated cells evaluated per experimental condition.

[2] = tested on: V79 hamster lung cells; experiment: Alamar blue assay (cell viability), V79 cells; type: cell-based
Experimental: (§1) V79 hamster lung cells, which are recommended in the OECD toxicology guidelines for hazard identification (i.e., cytotoxicity and genotoxicity) of chemicals, were purchased from the German Collection of Microorganisms and Cell Cultures (DSMZ, Braunschweig, Germany). They were cultured in Dulbecco´s modified Eagle medium and Ham´s F12 medium (DMEM/F12) (PromoCell, Heidelberg, Germany) containing 10% fetal calf serum at 37 °C in a humidified atmosphere containing 5% CO2. VC8 hamster cells were defective in DNA double-strand break (DSB) repair by homologous recombination (HR) due to the lack of functional BRCA2 protein [69, 70]. VC8 cells were provided by B. Kaina (Institute of Toxicology, Mainz, Germany). Nucleotide excision repair defective XPA and CSB deficient cells were also provided by B. Kaina and were described before. They were grown in DMEM containing 10% fetal calf serum. Human neuroblastoma cells (IMR-32 and SH-SY5Y) were purchased from the German Collection of Microorganisms and Cell Cultures (DSMZ, Braunschweig, Germany) and were used as a model of malignant cells. They were grown in DMEM or RPMI (Roswell park memorial institute) medium, respectively, containing 10% fetal calf serum. If not stated otherwise, HDACi were added to the exponentially growing cells and analyses were performed 6 h to 72 h later.
(§2) Cell viability was determined using the Alamar blue assay, which reflected the mitochondrial activity. Viable cells were characterized by an effective mitochondrial metabolization of the non-fluorescent dye resazurin (Sigma, Steinheim, Germany) to fluorescent resorufin (excitation: 535 nm, emission: 590 nm). Relative viability in the untreated control was set to 100%. In addition, the Neutral red assay, which measures the integrity of lysosomal membranes, was used to monitor cytotoxicity. To this end, cells were incubated with the Neutral red solution (0.01%) in an atmosphere containing 5% CO2 for 90 min before they were fixed (1% formaldehyde/1% CaCl2). Afterwards, the Neutral red that was taken up by the cells was extracted (50% ethanol/1% of acetic acid, 15 min at room temperature (RT)) and absorbance (540 nm) was measured. If not stated otherwise, data are shown as the mean ± standard deviation (SD) of two to three independent experiments each performed in quadruplicate. Approximate IC50 (~IC50, see Supplementary Table S1) were calculated from the corresponding dose-response curves.

[3] = tested on: IMR-32 neuroblastoma cells; experiment: Alamar blue assay (cell viability), IMR-32 cells; type: cell-based, human
Experimental: as §1, §2

[4] = tested on: V79 hamster lung cells; experiment: Neutral red assay (cytotoxicity), V79 cells; type: cell-based
Experimental: as §1, §2

[5] = tested on: VC8 hamster cells (BRCA1/2 defect); experiment: Viability of DSB repair defective VC8 versus wild-type V79 cells (Alamar blue); type: cell-based; conditions: summary grade, V79 versus VC8; further: key: −: no effect; 0: weak effect; +: moderate effect; ++: strong effect; +++: very strong effect as compared to untreated controls
Experimental: as §1, §2

[6] = tested on: V79 cells; experiment: DNA damage response (DDR) activation by Western blot; type: cell-based, hamster; conditions: for activation of DDR factors (γH2AX, p-p53, p-Chk1, p-Chk2, p-Kap1 protein levels): V79, Western blot, in words; for DDR Activation: summary grade, V79; on DDR Activation: key: −: no effect; 0: weak effect; +: moderate effect; ++: strong effect; +++: very strong effect as compared to untreated controls
Experimental: (§3) The activation of the DDR was investigated by Western blot analysis. To this end, total cell extracts were obtained by lysing an equal number of cells in Roti®-Load buffer (Carl Roth GmbH (Karlsruhe, Germany)) (5 min, RT). After sonication (EpiShear™ Probe sonicator, Active Motif, La Hulpe, Belgium), proteins were denatured by heating (5 min, 95 °C) and separated by SDS-PAGE (6% or 12.5% gel). Proteins were transferred onto a nitrocellulose membrane (GE Healthcare, Little Chalfont, UK) via the Protean Mini Cell System (BioRad (München, Germany)). The membrane was blocked with 5% non-fat milk in TBS/0.1% Tween 20 (MERCK, Darmstadt, Germany) (2 h, RT) and incubated with the corresponding primary antibody (1:1000, overnight, 4 °C). After washing with TBS/0.1% Tween 20, the secondary (peroxidase-conjugated) antibody was added (1:2000, 2 h, RT). The Fusion FX7 imaging system (PeqLab, Erlangen, Germany) was used for visualization of the bound antibodies. The following primary antibodies were used: Anti-Ser15 phosphorylated protein 53 (p-p53), anti-Talin-1, anti-Ser 345 checkpoint kinase 1 (p-Chk1), anti-cleaved caspase 3 and 7 (Cell Signaling, Beverly, MA, USA), anti-Ser824 phosphorylated Krüppel-associated box domain (KRAB)-associated protein-1 (p-Kap1), anti-Ser1981 phosphorylated ataxia telangiectasia mutated (pATM) and anti-Thr68 phosphorylated checkpoint kinase-2 (p-Chk2) (both Abcam, Cambridge, MA, USA), anti-Ser139 phosphorylated histone H2AX (γH2AX, Millipore, Billerica, MA, USA), and anti-β-actin (Santa Cruz, CA, USA). As secondary antibodies, horseradish peroxidase-conjugated secondary antibodies goat anti-mouse IgG and mouse anti-rabbit IgG (Rockland, Limerick, PA, USA) (2 h, RT) were used.

[7] = tested on: V79 cells; experiment: Caspase-3/-7 cleavage by Western blot (apoptosis); type: cell-based, hamster; conditions: for activation of caspase-3 and -7: 10 µM, 24 h, V79, in words; for Apoptosis: summary grade, calculated on the basis of caspase-3,-7 cleavage and SubG1 population, V79; on apoptosis: key: −: no effect; 0: weak effect; +: moderate effect; ++: strong effect; +++: very strong effect as compared to untreated controls
Experimental: as §3

[8] = tested on: V79 cells; experiment: Alkaline comet assay (DNA strand breaks); conditions: for Mean (% DNA in tail) / DNA strand breaks (comet assay): 24 h; for Mean (% DNA in tail) / Comet Assay: V79; for Mean (% DNA in tail): untreated control 16.8; for DNA strand breaks (comet assay): V79, in words; for Comet Assay: summary grade
Experimental: The formation of DNA strand breaks and apurinic/apyrimidinic sites was monitored employing the alkaline comet assay [87], which is part of the OECD guideline of in vivo genotoxicity testings and detects DNA strand breaks (DNA single- and double-strand breaks) and alkali-labile sites [87]. Briefly, after aspiration of the medium and trypsinization, cells were mixed with 0.5% melting agarose and transferred onto agarose-coated (1.5%) slides. After lysis in alkaline buffer (pH 10) (1 h, 4 °C, light protection) and unwinding of the DNA in precooled lysis buffer (pH >13) (20 min, 4 °C, light protection), electrophoresis was performed (electric current: 300 mA constant; 1 V/cm). After neutralization in salt buffer (pH 7.5) and staining with propidium iodide solution (50 µg/mL), comets were evaluated by fluorescence microscopy. Quantification of migrated DNA was performed with TriTek Comet Score™ software Version 1.5, evaluating ≥50 cells per condition (blinded assessment). […] Fold increase in tail intensities of treated cells were calculated by relating the % DNA in tail of treated cells to that of the corresponding untreated controls, which were set to 1.0 (see Figure 2B).

[9] = tested on: SH-SY5Y neuroblastoma cells; experiment: Alamar blue assay (cell viability), SH-SY5Y cells; type: cell-based, human
Experimental: as §1, §2

[10] = tested on: IMR-32 neuroblastoma cells; experiment: Neutral red assay (cytotoxicity), IMR-32 cells; type: cell-based, human
Experimental: as §1, §2

[11] = tested on: SH-SY5Y neuroblastoma cells; experiment: Neutral red assay (cytotoxicity), SH-SY5Y cells; type: cell-based, human
Experimental: as §1, §2

[12] = tested on: V79 cells; experiment: Cell cycle distribution / SubG1 fraction by flow cytometry; type: cell-based, hamster; conditions: 24 h, in words
Experimental: For flow cytometry-based analysis of cell cycle distribution, cells were trypsinized and combined with floating cells present in the medium. Following fixation with ice-cold ethanol (80%) (≥1 h, −20 °C), cells were pelleted (1000× g, 10 min, 4 °C) and suspended in phosphate-buffered saline (PBS). DNase-free RNase A (Serva, Heidelberg, Germany) was added (2 μg/mL, 1 h at RT). Nuclei were stained with propidium iodide (36.7 μg/mL Sigma, Steinheim, Germany) and analysis was performed using BD Accuri™C6 flow cytometer (BD, Franklin Lakes, NJ, USA).

[13] = V79, 24 h after drug treatment (values match Alamar blue data of Table S1), read-out: Viability (IC50) 24 h
[14] = V79, 72 h after drug treatment (values match Alamar blue data of Table S1), read-out: Viability (IC50) 72 h
[15] = 24 h, approximate IC50, read-out: IC50 - 24 h Treatment, IMR-32
[16] = 72 h, approximate IC50, read-out: IC50 - 72 h Treatment, IMR-32
[17] = 24 h, approximate IC50, read-out: IC50 - 24 h Treatment, SH-SY5Y
[18] = 72 h, approximate IC50, read-out: IC50 - 72 h Treatment, SH-SY5Y
[19] = Homo sapiens, IMR-32, 24 h, approximate IC50, read-out: IC50 - 24 h Treatment, IMR-32
[20] = Homo sapiens, IMR-32, 72 h, approximate IC50, read-out: IC50 - 72 h Treatment, IMR-32
[21] = Homo sapiens, SH-SY5Y, 24 h, approximate IC50, read-out: IC50 - 24 h Treatment, SH-SY5Y
[22] = Homo sapiens, SH-SY5Y, 72 h, approximate IC50, read-out: IC50 - 72 h Treatment, SH-SY5Y

Structure (SMILES) | micronucleus assay outcome at 50 μM (printed in Figure 2A) [1] | Micronucl. Assay [1] | IC50 [2, 13] | IC50 [2, 14] | DSB Repair def. Cells [5] | activation of DDR factors (γH2AX, p-p53, p-Chk1, p-Chk2, p-Kap1 protein levels) [6] | DDR Activation [6] | activation of caspase-3 and -7 [7] | Apoptosis [7] | Mean (% DNA in tail) ([8]; 2 µM) | Mean (% DNA in tail) ([8]; 10 µM) | Mean (% DNA in tail) ([8]; 50 µM) | DNA strand breaks (comet assay) [8] | Comet Assay [8] | percentage of V79 cells in the SubG1 fraction [12] | IC50 [9, 21] | other results
CN(C)c1ccc(C(=O)N(CC(=O)NCc2ccccc2)Cc2ccc(C(=O)NO)cc2)cc1 [DDK137] | Cytotoxic | + | 33 µM | 11 µM | + | substantial increase in γH2AX levels but no, or only a minor, increase in p-p53 and p-Chk1/p-Chk2 levels | + | activation of caspase-3 and -7 | + | 15.1 % DNA in tail | 6.9 % DNA in tail | 17.3 % DNA in tail | did not cause a significant rise in DNA damage | − |  |  | less cytotoxic to non-malignant V79 cells than to malignant neuroblastoma cells (IC50 based) ([2]; selection criterion, IC50 of Table S1): ≥ 10 fold; IC50 [3, 15]: 0.6 µM; IC50 [3, 16]: 0.2 µM; IC50 ([4]; 24 h, approximate IC50, read-out: IC50 - 24 h Treatment, V79): 36 µM; IC50 ([4]; 72 h, approximate IC50, read-out: IC50 - 72 h Treatment, V79): 17 µM; IC50 [9, 17]: 50 µM; IC50 [9, 18]: 0.9 µM; IC50 [10, 15]: 10 µM; IC50 [10, 16]: 0.3 µM; IC50 [11, 17]: > 50 µM; IC50 [11, 18]: 1 µM
Nc1ccccc1NC(=O)c1ccc(CNC(=O)OCc2cccnc2)cc1 [Entinostat, entinostat, reference compound] |  |  | > 50 µM | 7 µM | + | substantial increase in γH2AX levels but no, or only a minor, increase in p-p53 and p-Chk1/p-Chk2 levels | + | only activated caspase-7 but not caspase-3 | 0 |  | 34.5 % DNA in tail | 37.8 % DNA in tail | only promoted the formation of DNA strand breaks | − | did not increase the percentage of cells present in the SubG1 fraction | > 50 µM | IC50 [3, 19]: 50 µM; IC50 [3, 20]: 2 µM; IC50 ([4]; V79, 24 h, approximate IC50, read-out: IC50 - 24 h Treatment, V79): > 50 µM; IC50 ([4]; V79, 72 h, approximate IC50, read-out: IC50 - 72 h Treatment, V79): 2 µM; Mean (% DNA in tail) ([8]; 100 µM): 34.9 % DNA in tail; IC50 [9, 22]: 8 µM; IC50 [10, 19]: > 50 µM; IC50 [10, 20]: 3 µM; IC50 [11, 21]: > 50 µM; IC50 [11, 22]: 9 µM
O=C(CCCCCCC(=O)Nc1ccccc1)NO [Vorinostat, vorinostat, reference compound] | Cytotoxic | + |  |  | ++ | substantial increase in γH2AX levels but no, or only a minor, increase in p-p53 and p-Chk1/p-Chk2 levels | + | activation of caspase-3 and -7 | ++ | 14.0 % DNA in tail | 8.0 % DNA in tail | 13.2 % DNA in tail | did not cause a significant rise in DNA damage | − | moderate increase of the percentage of V79 cells present in the SubG1 fraction | 33 µM | 
